# System: CD1 female mouse brain lipidome
# Experiment: Brain-region lipid levels (HPLC/MS/MS lipidomics) 2 h after single i.p. 3 mg/kg CP 55,940 vs vehicle
# Assay type: in vivo
# Design: N-arachidonoyl phenylalanine level, Mean / N-stearoyl tryptophan level, Mean / N-stearoyl proline level, Mean / N-stearoyl leucine level, Mean / N-stearoyl phenylalanine level, Mean / N-stearoyl serine level, Mean / N-stearoyl methionine level, Mean: unit: moles per gram
# Conditions: brainstem, PND 50, 3 mg/kg CP 55,940
# Protocol: The Bloomington Institutional Animal Care and Use Committee of Indiana University reviewed and approved the animal procedures. Female mice from the CD1 strain were utilized to match our study examining THC’s effects on the brain lipidome ([Leishman et al., 2018]). Mice were given a single i.p. injection of either 3 mg/kg CP or 1:1:18 cremophor:ethanol:saline vehicle (please refer to the section “3 mg/kg CP Is Relevant for Synthetic Cannabinoid Abuse and Has Stronger Effects on the Female Mouse Brain Lipidome During Adolescence” for a justification of dose and use of female mice). Three different age groups were given injections: PND 35 and PND 50 adolescents, and adult mice (PND 113). At least eight mice in each age group received CP and at least eight received vehicle. Matching the THC study time course ([Leishman et al., 2018]), mice were sacrificed via rapid decapitation 2 h after injection. Brains were immediately removed and flash-frozen in liquid nitrogen, and then stored at -80°C until dissections were performed. Brains were dissected on an ice-cold dissection plate into the following regions: STR, HIPP, CER, THAL, CTX, HYP, MID, and STEM. These abbreviations for these brain areas will be used exclusively when discussing the results generated by these specific dissections. Each dissected area was immediately placed in liquid nitrogen and then stored at -80°C until used for lipid extraction.
# Tissue extracts were performed as previously described ([Bradshaw et al., 2006]; [Stuart et al., 2013]; [Raboune et al., 2014]; [Leishman et al., 2016a],[b], [2017], [2018]). First, samples were shock frozen in liquid nitrogen, weighed, and transferred to a centrifuge tube. The mass of the largest sample was multiplied by 50 to determine how many milliliters of HPLC-grade methanol (Fisher, Fair Lawn, NJ, United States) to add. Then, samples were spiked with 500 pmol deuterium-labeled NAGly (d8NAGly; Cayman Chemical, Ann Arbor, MI, United States). Samples were placed on ice in darkness for 2 h then individually homogenized and centrifuged at 19,000 × g for 20 min at 20°C. Supernatants were diluted with HPLC water (purified in house) to make a solution of 75% water, 25% supernatant. Lipids were partially purified on C18 solid phase extraction columns (Agilent, Palo Alto, CA, United States). A series of four elutions with 1.5 mL of 60%, 75%, 85%, and 100% methanol were collected ([Stuart et al., 2013]; [Leishman et al., 2016a],[b], [2018]).
# As previously described ([Bradshaw et al., 2006]; [Tan et al., 2006]; [Smoum et al., 2010]; [Stuart et al., 2013]; [Tortoriello et al., 2013]; [Raboune et al., 2014]; [Leishman et al., 2016a],[b], [2017], [2018]), samples were analyzed using an Applied Biosystems API 3000 triple quadrupole mass spectrometer with electrospray ionization (Foster City, CA, United States). Using an Agilent XDB-C18 reversed phase analytical column and optimized mobile phase gradients, 20 μL from each elution were chromatographed. Two Shimadzu 10ADvp pumps (Columbia, MD, United States) provided the pressure for gradient elution. Mobile phase A: 20% methanol, 80% water (v/v) and 1 mM ammonium acetate (Sigma, St. Louis, MO, United States). Mobile phase B: 100% methanol, 1 mM ammonium acetate. Every method run began with 0% mobile phase B, reached 100% mobile phase B flowing at 0.2 mL/min, and gradually returned to 0% mobile phase B.
# This screening library will be referred to as the lipidome when discussing data from this study. HPLC/MS/MS data were analyzed using Analyst software (Applied Biosystems) ([Bradshaw et al., 2006]; [Tan et al., 2006]; [Stuart et al., 2013]; [Tortoriello et al., 2013]; [Raboune et al., 2014]; [Leishman et al., 2016a],[b], [2017], [2018]). Chromatograms (Supplementary Figure 3) were generated by determining the retention time of analytes from the analytical column with a [M-1] or [M+1] parent peak and a fragmentation peak corresponding to the programmed values. […]
structure (smiles),measurement,value
"CCCCCCC(C)(C)c1ccc([C@@H]2C[C@H](O)CC[C@H]2CCCO)c(O)c1 [CP 55,940]","N-arachidonoyl glycine level, Mean",9.26E-12
same,"N-arachidonoyl methionine level, Mean",PISSR
same,"N-arachidonoyl phenylalanine level, Mean",3.18E-13
same,"N-arachidonoyl proline level, Mean",BDL
same,"N-arachidonoyl serine level, Mean",5.36E-12
same,"N-arachidonoyl taurine level, Mean",1.14E-11
same,"N-arachidonoyl tryptophan level, Mean",BDL
same,"N-arachidonoyl tyrosine level, Mean",2.42E-13
same,"N-docosahexaenoyl GABA level, Mean",9.05E-13
same,"N-docosahexaenoyl alanine level, Mean",PISSR
same,"N-docosahexaenoyl ethanolamine level, Mean",3.73E-11
same,"N-docosahexaenoyl glycine level, Mean",1.5E-12
same,"N-docosahexaenoyl leucine level, Mean",1.24E-13
same,"N-docosahexaenoyl methionine level, Mean",PISSR
same,"N-docosahexaenoyl phenylalanine level, Mean",1.89E-13
same,"N-docosahexaenoyl proline level, Mean",BDL
same,"N-docosahexaenoyl serine level, Mean",1.33E-11
same,"N-docosahexaenoyl tryptophan level, Mean",BDL
same,"N-docosahexaenoyl tyrosine level, Mean",4.65E-13
same,"N-docosahexaenoyl valine level, Mean",BDL
same,"N-linoleoyl GABA level, Mean",6.01E-13
same,"N-linoleoyl alanine level, Mean",1.01E-13
same,"N-linoleoyl ethanolamine level, Mean",3.38E-11
same,"N-linoleoyl glycine level, Mean",4.12E-13
same,"N-linoleoyl leucine level, Mean",4.41E-14
same,"N-linoleoyl methionine level, Mean",PISSR
same,"N-linoleoyl phenylalanine level, Mean",PISSR
same,"N-linoleoyl proline level, Mean",BDL
same,"N-linoleoyl serine level, Mean",6.34E-11
same,"N-linoleoyl tryptophan level, Mean",BDL
same,"N-linoleoyl tyrosine level, Mean",PISSR
same,"N-linoleoyl valine level, Mean",BDL
same,"N-nervonoyl valine level, Mean",BDL
same,"N-oleoyl GABA level, Mean",3.95E-12
same,"N-oleoyl alanine level, Mean",1.3E-12
same,"N-oleoyl dopamine level, Mean",BDL
same,"N-oleoyl ethanolamine level, Mean",7.29E-11
same,"N-oleoyl glycine level, Mean",5.38E-12
same,"N-oleoyl leucine level, Mean",4.93E-13
same,"N-oleoyl methionine level, Mean",1.84E-13
same,"N-oleoyl phenylalanine level, Mean",7.71E-13
same,"N-oleoyl proline level, Mean",BDL
same,"N-oleoyl serine level, Mean",1.1E-10
same,"N-oleoyl tryptophan level, Mean",BDL
same,"N-oleoyl tyrosine level, Mean",2.91E-13
same,"N-oleoyl valine level, Mean",6.02E-14
same,"N-palmitoyl GABA level, Mean",6.41E-12
same,"N-palmitoyl alanine level, Mean",3.07E-12
same,"N-palmitoyl ethanolamine level, Mean",6.28E-11
same,"N-palmitoyl glycine level, Mean",1.47E-11
same,"N-palmitoyl leucine level, Mean",1.11E-12
